Legend:
hTERT [1] = experiment: hTERT transcription levels by RT-qPCR in KG-1; assay type: cell-based, human; conditions: 20 nM ABT-199, at either time point (48 or 96 hours)
Procedure: (§1) Samples from cell experiments (and single agent controls) were collected for molecular analyses to assess combination effects contributing to potential mechanisms of action. […] Nucleic acids were purified by first lysing cells with 350 μL of RLT Buffer (Qiagen catalog #1030963) supplemented with 2-mercaptoethanol (Sigma catalog #63689-100ML-F). RNA was purified with the AllPrep RNA/DNA Mini Kit (Qiagen catalog #80204) and reverse transcribed to cDNA using a High Capacity cDNA kit (ThermoFisher catalog #4368814) and pre-amplified prior to analysis with TaqMan PreAmp Master Mix (ThermoFisher catalog #4384557B). Products were analyzed using an in-house developed Taq-Man RT-qPCR assay to measure hTERT transcription levels (TaqMan Universal PCR Master Mix—ThermoFisher catalog #4304437; primer and probe sequences below) using a ViiA7 Real-Time PCR system from ThermoFisher: […]

hTERT [2] = experiment: hTERT transcription levels by RT-qPCR in MOLM-13; assay type: cell-based, human; conditions: MOLM-13, 96 hours; 50 μM imetelstat sodium and/or 20 nM ABT-199
Procedure: as §1

telomerase [3] = experiment: telomerase activity by qPCR TRAP in KG-1 lysates; assay type: cell-based, human; conditions: 50 μM imetelstat sodium or 20 nM ABT-199
Procedure: (§2) Samples from the previous section for protein analysis were collected as cell pellets by centrifugation at 5 minutes for 1500K for lyses and protein extraction. Protein lysates were analyzed by utilizing a modified method combined from two primary sources (Hou, et al. (2001) 43(3) 519-524 and Nature Protocols (2006) 1 (3) 1583-1590). Lysates were generated by adding 80 μL of a 10 mM Tris-EDTA, 1% NP-40, 10% Glycerol, 150 mM NaCl, 1 mM MgCl2, 250 μM Sodium Deoxycholate, 100 μM AEBSF, 5 mM 2-mercaptoethanol buffer and incubating on ice for 30 minutes. Lysates were centrifuged for 15 minutes at max speed and at 4° C. to pellet cellular debris. Protein yield from clarified lysates were quantified using a BCA assay (ThermoFisher catalog 23252) and subjected to a qPCR TRAP-based assay to determine relative telomerase activity (Power SYBR Green PCR Master Mix—ThermoFisher #4367659) using a ViiA7 Real-Time PCR system from ThermoFisher. In this assay, protein lysates are exposed to synthetic oligonucleotides mimicking telomere sequences in the presence of excess dNTPs and SYBR green dye. The greater the activity of telomerase, the greater extension of the synthetic primers, and therefore greater staining of nucleic acid and signal generated by the SYBR dye. This signal is compared to a standard curve of control protein lysate to determine the relative telomerase activity between samples.

telomerase [4] = experiment: telomerase activity by qPCR TRAP in MOLM-13 lysates; assay type: cell-based, human; conditions: 50 μM imetelstat sodium or 20 nM ABT-199
Procedure: as §2

[5] = test system: CD45+ leukocytes from AML patient PBMCs; experiment: ex vivo viability of AML patient PBMCs, CD45+ leukocytes; assay type: cell-based, human; conditions: 16-hour and 40-hour exposure; imetelstat sodium 25, 50 μM and/or venetoclax 20, 100 nM; mean of four patients
Procedure: AML cell lines (see Example 1) and AML patient peripheral blood mononuclear cell (“PBMC”) samples, which were obtained from AML patient whole blood after Ficoll purification, were treated with imetelstat sodium or venetoclax alone, or in combination, and viable and apoptotic populations of cells were evaluated by flow cytometry. Telomerase activity, hTERT expression and mitochondrial dysfunction were investigated for mechanism of action. […] Apoptosis was measured via flow cytometry staining for Annexin V and propidium iodide. Unstained (i.e. double negative) cells constitute viable cells remaining after treatment.
Specifically, whole blood from AML patients (n=4) was purified using Ficoll-Paque Plus (GE Healthcare catalog #17-1440-03) to purify PBMCs. […]
After 16- and 40-hours of treatment, cells were measured for healthy, early apoptotic and apoptotic populations with an Annexin V (interior cell membrane stain) plus propidium iodide (PI, DNA binding dye) flow cytometry assay kit (BioLegend catalog #640914) as described in the Example 1. […] Means and standard deviations were determined for the four patients for CD45^+ (leukocytes) and CD45^+/CD34^+ (leukemic stem cells) populations.

[6] = test system: MOLM-13 AML disseminated model; experiment: MOLM-13 AML disseminated mouse model, survival; assay type: in vivo; conditions: MOLM-13 implanted SCID-beige mice; imetelstat sodium or MM 30 mg/kg ip TIW x 4 weeks, ABT-199 100 mg/kg po qd x 4 weeks
Procedure: An in vivo study in the MOLM-13 AML disseminated mouse model was conducted to assess efficacy and survival. Specifically, on day 0 of the study, MOLM-13 AML tumor cells were implanted into mice. […] The percent survival of the mice was assessed as a function of time (days post tumor cell implantation). The study lasted for a total of 108 days (77 days after stopping treatment).
Fifty female SCID-beige mice (6-week-old, Jackson Laboratory) were intravenously injected with 1 million MOLM-13 cells and randomly divided into five groups.
Mice were observed daily and body weights were measured twice a week. The survival of mice in each group was followed. The study was terminated on day 108, which was 77 days post last treatment. The increased life span (“ILS”) was evaluated for each group, and the % ILS versus the vehicle control was calculated as: % ILS=100×(T−C)/C where T is the median survival of the treatment group and C is the median survival of the control group.

SMILES: CC1(C)CCC(CN2CCN(c3ccc(C(=O)NS(=O)(=O)c4ccc(NCC5CCOCC5)c([N+](=O)[O-])c4)c(Oc4cnc5[nH]ccc5c4)c3)CC2)=C(c2ccc(Cl)cc2)C1 [ABT-199, 4-[4-[[2-(4-chlorophenyl)-4,4-dimethylcyclohexen-1-yl]methyl]piperazin-1-yl]-N-[3-nitro-4-(oxan-4-ylmethylamino)phenyl]sulfonyl-2-(1H-pyrrolo [2,3-b]pyridin-5-yloxy)benzamide]
- hTERT RNA expression level, percentage of untreated controls (hTERT [1]): 90-95%
- hTERT RNA expression level, percentage of untreated controls (hTERT [2]): ~69%
- telomerase activity as compared to control (telomerase [3]; KG-1, 48 hours): no effect
- telomerase activity as compared to control (telomerase [3]; KG-1, 96 hours): ~80%
- telomerase activity as compared to control (telomerase [4]; MOLM-13, 48 hours): no effect
- telomerase activity as compared to control (telomerase [4]; MOLM-13, 96 hours): ~70%
- viability of CD45+ leukocytes derived from AML patients [5]: only moderately impacted
- % ILS (increased life span as compared to vehicle control) [6]: 36.3%
- Median Survival [6]: 30 days

Source: US11278561B2, “Combination treatment for hematological cancers” (Geron Corporation, priority 2016, dated 2022)
